Molecular target: T1, TTK (Homo sapiens, UniProt P33981)
T1 construct: purchased Thermo Fisher Scientific (Life Technologies) SelectScreen
Test: SelectScreen LanthaScreen
Format: binding
Conditions: read-out: % displacement
Outline: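 SelectScreen broad panel; activity (Z'LYTE, Adapta) plus binding formats. ATP: Km app for CSF1R Z'LYTE; 10 for CAMK1 Adapta. Readout = % per kinase.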

T1 sequence (P33981 whole entry): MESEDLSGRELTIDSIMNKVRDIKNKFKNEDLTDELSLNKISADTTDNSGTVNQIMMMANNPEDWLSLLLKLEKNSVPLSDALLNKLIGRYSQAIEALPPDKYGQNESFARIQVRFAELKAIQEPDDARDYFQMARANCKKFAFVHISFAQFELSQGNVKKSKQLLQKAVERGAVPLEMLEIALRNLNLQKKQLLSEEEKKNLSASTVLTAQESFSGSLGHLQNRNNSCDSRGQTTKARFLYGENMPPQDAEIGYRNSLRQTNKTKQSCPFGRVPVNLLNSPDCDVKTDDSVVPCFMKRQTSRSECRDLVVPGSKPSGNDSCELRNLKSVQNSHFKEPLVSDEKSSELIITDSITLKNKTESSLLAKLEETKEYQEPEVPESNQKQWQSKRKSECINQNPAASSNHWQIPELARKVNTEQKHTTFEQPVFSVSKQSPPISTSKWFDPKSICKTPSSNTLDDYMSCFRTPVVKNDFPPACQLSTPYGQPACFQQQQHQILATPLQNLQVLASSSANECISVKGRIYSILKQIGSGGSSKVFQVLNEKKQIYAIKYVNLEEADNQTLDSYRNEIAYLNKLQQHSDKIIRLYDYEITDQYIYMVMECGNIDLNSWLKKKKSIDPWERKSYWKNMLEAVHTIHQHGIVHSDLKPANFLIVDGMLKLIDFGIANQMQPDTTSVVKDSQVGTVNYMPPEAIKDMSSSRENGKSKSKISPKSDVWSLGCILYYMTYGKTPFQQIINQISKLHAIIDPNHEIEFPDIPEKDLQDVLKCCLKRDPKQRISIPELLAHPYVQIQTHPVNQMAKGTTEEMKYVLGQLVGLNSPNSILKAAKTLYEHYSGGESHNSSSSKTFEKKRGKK

Compound `CN(C(=O)CN1CCOCC1)c1ccc2sc3c(-c4cccc5c(=O)cc(N6CC7CCC(C6)O7)oc45)cccc3c2c1` [NU5455] has an inhibition at 1 µM of -0.7%.
